Where “and” joins values, the source holds several entries; their conditions need not be identical. Equal values may be shown once. Where only a bound is given, the exact number is not on record here.

The record followed here is patent US20150297594A1, “Combination of a 6-oxo-1,6-dihydro-pyridazine derivative having anti-cancer activity with a MEK inhibitor” (MERCK PATENT GMBH, priority 2012, published 2015).

In experiment [1] the test system is patient derived pancreatic tumor fragment. The experiment can be described thus: 10 patient derived pancreatic tumor models in nude mice. In kind it is in vivo, human. Here is the method:
Combination with MEK inhibitor N-((S)-2,3-dihydroxy-propyl)-3-(2-fluoro-4-iodo-phenylamino)-isonicotinamide in 10 patient derived pancreatic tumor models:
Method: Female NMRI nude mice (6-8 week old) where subcutaneously implanted with a patient derived pancreatic tumor fragment. Animals were divided into treatments groups (ten animals in one group) after the tumors were established. Respective groups were administered orally with the 3-(1-{3-[5-(1-methyl-piperidin-4-ylmethoxy)-pyrimidin-2-yl]-benzyl}-6-oxo -1,6-dihydro-pyridazin-3-yl)-benzonitrile hydrochloride hydrate (100 mg/kg) or N-((S)-2,3-dihydroxy-propyl)-3-(2-fluoro-4-iodo-phenylamino)-isonicotinamide (100 mg/kg, MTD) for 5 days on and 2 days off in monotherapy or in combination. At the end of treatment TC values were calculated and tumor regrowth was observed. Statistical analysis has been done with one way ANOVO. […] All treatments were well tolerated.

Experiment [2] concerns human KP-4 pancreatic tumor cells. The experiment is described as follows: human KP-4 pancreatic tumor xenograft model in nude mice. It is filed as in vivo. The settings on record: female BalBc nude mice, s.c. KP-4 tumors, 5 days on and 2 days off, end of treatment.
Method: Method: Female BalBc nude mice (6-8 week old) where subcutaneously injected with human KP-4 pancreatic tumor cells and were divided into treatment groups (ten animals in one group) after the tumors were established.
Respective groups were administered orally with the 3-(1-{3-[5-(1-methyl-piperidin-4-ylmethoxy)-pyrimidin-2-yl]-benzyl}-6-oxo-1,6-dihydro-pyridazin -3-yl)-benzonitrile hydrochloride hydrate (100 mg/kg) or N-((S)-2,3-dihydroxy-propyl)-3-(2-fluoro-4-iodo-phenylamino)-isonicotinamide (50 mg/kg) for 5 days on and 2 days off in monotherapy or in combination. […] Statistical analysis has been done with one way ANOVA.

For the compound `CN1CCC(COc2cnc(-c3cccc(Cn4nc(-c5cccc(C#N)c5)ccc4=O)c3)nc2)CC1.Cl.O` [3-(1-{3-[5-(1-methyl-piperidin-4-ylmethoxy)-pyrimidin-2-yl]-benzyl}-6-oxo-1,6-dihydro-pyridazin-3-yl)-benzonitrile hydrochloride hydrate], the TC values in experiment [1] (female NMRI nude mice; monotherapy 100 mg/kg orally, 5 days on and 2 days off; end of treatment; the models with anti-tumor activity; hydrochloride hydrate)) was 43% and 50%. The TC value in experiment [2] (monotherapy 100 mg/kg orally) is listed as 35%.

Take `O=C(NC[C@H](O)CO)c1ccncc1Nc1ccc(I)cc1F` [N-((S)-2,3-dihydroxy-propyl)-3-(2-fluoro-4-iodo-phenylamino)-isonicotinamide]: in experiment [1] (female NMRI nude mice, monotherapy 100 mg/kg (MTD) orally, 5 days on and 2 days off, end of treatment, all 10 models), the TC values is listed as < 55%. Moreover, the “models with anti-tumor activity” value in experiment [1] (female NMRI nude mice, monotherapy 100 mg/kg orally, 5 days on and 2 days off, out of 10 models) stood at 10. The TC value in experiment [2] (monotherapy 50 mg/kg orally) was found to be 42%.
